Measured values reported in paper PMC10125213 (Journal of Molecular Biology, 2023).

Assays:
Assay type in all cases: binding, SARS-CoV-2
[1] = tested on: RBM mutant RBD protein derived from BA.2
[2] = target: Omicron RBD (Severe acute respiratory syndrome coronavirus 2, UniProt P0DTC2, E484A/G339D/G446S/G496S/K417N/N440K/N501Y/Q493K/Q498R/S371L/S373P/S375F/S477N/T478K/Y505H)
[3] = target: RBM mutant RBD protein derived from BA.4/5 (Severe acute respiratory syndrome coronavirus 2, UniProt P0DTC2, E484A/F486V/L452R/N440K/N501Y/Q498R/S477N/T478K/Y505H)
[4] = target: Omicron (BA.1) S protein (Severe acute respiratory syndrome coronavirus 2, UniProt P0DTC2, A67V/D614G/D796Y/DEL143-145/DEL211-211/DEL69-70/E484A/G142D/G339D/G446S/G496S/H655Y/INS214EPE/K417N/L212I/L981F/N440K/N501Y/N679K/N764K/N856K/N969K/P681H/Q493K/Q498R/Q954H/S371L/S373P/S375F/S477N/T478K/T547K/T95I/Y505H)
[5] = target: BA.4/5 S protein (Severe acute respiratory syndrome coronavirus 2, UniProt P0DTC2, A27S/D405N/D614G/D796Y/DEL24-26/DEL69-70/E484A/F486V/G142D/G339D/H655Y/K417N/L452R/N440K/N501Y/N679K/N764K/N969K/P681H/Q498R/Q954H/R408S/S371F/S373P/S375F/S477N/T19I/T376A/T478K/V213G/Y505H)
[6] = target: BA.2 S protein (Severe acute respiratory syndrome coronavirus 2, UniProt P0DTC2, A27S/D405N/D614G/D796Y/DEL24-26/E484A/G142D/G339D/H655Y/K417N/N440K/N501Y/N679K/N764K/N969K/P681H/Q493R/Q498R/Q954H/R408S/S371F/S373P/S375F/S477N/T19I/T376A/T478K/V213G/Y505H)

Structure (SMILES): O=C(O)CCP(CCC(=O)O)CCC(=O)O [TCEP, tris-(2-carboxyethyl)phosphine]
- sensitivity to TCEP compared to WT protein [1]: enhanced sensitivities
- inhibition of activity of Omicron RBD [2]: > 80%
- sensitivity to TCEP compared to WT protein [3]: enhanced sensitivities

Structure (SMILES): N[C@@H](CCC(=O)N[C@@H](CS)C(=O)NCC(=O)O)C(=O)O [GSH, reduced glutathione]
- IC50 [4]: < 10 mM
- IC50 [5]: < 10 mM
- IC50 [6]: < 10 mM
